Data published in ChEMBL document CHEMBL1201862, “PubChem BioAssay data set” (2004).
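Briefly, cells in 96-well plates were exposed to five compound concentrations for 48 h, and endpoints were estimated by linear interpolation. The concentration for 50% growth inhibition is given as GI50.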 Active and inactive are the calls of the source. Rule as the data show it: active = GI50 up to about 1.1 µM and inactive = higher.

Columns and labels:
Experiment in all cases: growth of human tumour cells (NCI), 48 h
A549 = system: A549
ACHN = system: ACHN
CCRF-CEM = system: CCRF-CEM
COLO 205 = system: COLO 205
DLD-1 = system: DLD-1
DMS-114 = system: DMS-114
DMS-273 = system: DMS-273
HCT-15 = system: HCT-15
HL-60 = system: HL-60
HOP-62 = system: HOP-62
HOP-92 = system: HOP-92
HT-29 = system: HT-29
IGROV-1 = system: IGROV-1
K562 = system: K562
KM-20L2 = system: KM-20L2
LXFL 529 = system: LXFL 529
M14 = system: M14
M19-MEL = system: M19-MEL
MOLT-4 = system: MOLT-4
NCI-H23 = system: NCI-H23
NCI-H522 = system: NCI-H522
OVCAR-3 = system: OVCAR-3
OVCAR-4 = system: OVCAR-4
OVCAR-5 = system: OVCAR-5
RXF 631 = system: RXF 631
SF-268 = system: SF-268
SF-295 = system: SF-295
SF-539 = system: SF-539
SK-MEL-28 = system: SK-MEL-28
SK-MEL-5 = system: SK-MEL-5
SK-OV-3 = system: SK-OV-3
SN12C = system: SN12C
SNB-19 = system: SNB-19
SNB-75 = system: SNB-75
SR = system: SR
SW-620 = system: SW-620
TK-10 = system: TK-10
U-251 = system: U-251
UACC-257 = system: UACC-257
UACC-62 = system: UACC-62
UO-31 = system: UO-31
786-0 = system: 786-0
A498 = system: A498
CAKI-1 = system: CAKI-1
EKVX = system: EKVX
HCC 2998 = system: HCC 2998
HCT-116 = system: HCT-116
KM12 = system: KM12
Malme-3M = system: Malme-3M
NCI-H226 = system: NCI-H226
NCI-H460 = system: NCI-H460
OVCAR-8 = system: OVCAR-8
RPMI-8226 = system: RPMI-8226
RXF 393 = system: RXF 393
SK-MEL-2 = system: SK-MEL-2
SNB-78 = system: SNB-78
HOP-18 = system: HOP-18
LOX IMVI = system: LOX IMVI
XF498 = system: XF498

O=C1CN(c2ccccc2)C(=O)C1C(=O)Nc1ccc(Cl)c(Cl)c1 (centres undefined)
GI50 (A549): 2.72 µM (inactive)
GI50 (ACHN): 4 µM (inactive)
GI50 (CCRF-CEM): 1.84 µM (inactive)
GI50 (COLO 205): 8.07 µM (inactive)
GI50 (DLD-1): 5.08 µM (inactive)
GI50 (DMS-114): 2.76 µM (inactive)
GI50 (DMS-273): 3.1 µM (inactive)
GI50 (HCT-15): 1.56 µM
GI50 (HL-60): 0.667 µM (active)
GI50 (HOP-62): 2.22 µM (inactive)
GI50 (HOP-92): 2.53 µM (inactive)
GI50 (HT-29): 3.68 µM (inactive)
GI50 (IGROV-1): 2.33 µM (inactive)
GI50 (K562): 0.604 µM (active)
GI50 (KM-20L2): 4.41 µM (inactive)
GI50 (LXFL 529): 1.65 µM (inactive)
GI50 (M14): 1.79 µM (inactive)
GI50 (M19-MEL): 1.77 µM (inactive)
GI50 (MOLT-4): 2.33 µM (inactive)
GI50 (NCI-H23): 7.31 µM (inactive)
GI50 (NCI-H522): 2.05 µM (inactive)
GI50 (OVCAR-3): 3.15 µM (inactive)
GI50 (OVCAR-4): 11.7 µM (inactive)
GI50 (OVCAR-5): 30.4 µM (inactive)
GI50 (RXF 631): 3.59 µM (inactive)
GI50 (SF-268): 6.32 µM (inactive)
GI50 (SF-295): 3.72 µM (inactive)
GI50 (SF-539): 3.85 µM (inactive)
GI50 (SK-MEL-28): 7.43 µM (inactive)
GI50 (SK-MEL-5): 1.36 µM (inactive)
GI50 (SK-OV-3): 5.19 µM (inactive)
GI50 (SN12C): 4.73 µM (inactive)
GI50 (SNB-19): 4.62 µM (inactive)
GI50 (SNB-75): 0.973 µM (active)
GI50 (SR): 0.581 µM (active)
GI50 (SW-620): 1.21 µM (inactive)
GI50 (TK-10): 7.05 µM (inactive)
GI50 (U-251): 3.78 µM (inactive)
GI50 (UACC-257): 8.28 µM (inactive)
GI50 (UACC-62): 1.73 µM (inactive)
GI50 (UO-31): 4.12 µM (inactive)

COC(=O)[C@@H](C)[C@H]1CC[C@@](C)(CCC2=C(C)CC3C=C(C)CCC3C2(C)C)OO1 (some centres undefined)
GI50 (786-0): 0.117 µM (active)
GI50 (A498): 1.8 µM (inactive)
GI50 (A549): 1.6 µM (inactive)
GI50 (ACHN): 1.53 µM (inactive)
GI50 (CAKI-1): 1.34 µM (inactive)
GI50 (CCRF-CEM): 0.165 µM (active)
GI50 (COLO 205): 1.66 µM (inactive)
GI50 (DLD-1): 0.962 µM (active)
GI50 (DMS-114): 1.81 µM (inactive)
GI50 (DMS-273): 2.18 µM (inactive)
GI50 (EKVX): 1.64 µM (inactive)
GI50 (HCC 2998): 1.35 µM (inactive)
GI50 (HCT-116): 1.69 µM (inactive)
GI50 (HCT-15): 1.31 µM
GI50 (HL-60): 0.212 µM (active)
GI50 (HOP-62): 2.06 µM (inactive)
GI50 (HT-29): 1.42 µM (inactive)
GI50 (IGROV-1): 1.42 µM (inactive)
GI50 (K562): 1.3 µM (inactive)
GI50 (KM-20L2): 1.7 µM (inactive)
GI50 (KM12): 1.42 µM (inactive)
GI50 (LXFL 529): 1.03 µM (active)
GI50 (M14): 1.73 µM (inactive)
GI50 (M19-MEL): 1.77 µM (inactive)
GI50 (MOLT-4): 1.04 µM (active)
GI50 (Malme-3M): 1.91 µM (inactive)
GI50 (NCI-H226): 2.04 µM (inactive)
GI50 (NCI-H23): 1.7 µM (inactive)
GI50 (NCI-H460): 1.5 µM (inactive)
GI50 (NCI-H522): 0.167 µM (active)
GI50 (OVCAR-3): 1.92 µM (inactive)
GI50 (OVCAR-4): 1.52 µM (inactive)
GI50 (OVCAR-5): 1.87 µM (inactive)
GI50 (OVCAR-8): 1.92 µM (inactive)
GI50 (RPMI-8226): 1.65 µM (inactive)
GI50 (RXF 393): 1.37 µM (inactive)
GI50 (RXF 631): 2 µM (inactive)
GI50 (SF-268): 1.85 µM (inactive)
GI50 (SF-295): 1.79 µM (inactive)
GI50 (SF-539): 1.82 µM (inactive)
GI50 (SK-MEL-28): 1.65 µM (inactive)
GI50 (SK-MEL-2): 1.59 µM (inactive)
GI50 (SK-MEL-5): 1.49 µM (inactive)
GI50 (SK-OV-3): 2.4 µM (inactive)
GI50 (SN12C): 1.06 µM (active)
GI50 (SNB-19): 1.72 µM (inactive)
GI50 (SNB-75): 1.57 µM (inactive)
GI50 (SNB-78): 2.23 µM (inactive)
GI50 (SR): 1.57 µM (inactive)
GI50 (SW-620): 0.277 µM (active)
GI50 (TK-10): 1.91 µM (inactive)
GI50 (U-251): 1.42 µM (inactive)
GI50 (UACC-257): 2.99 µM (inactive)
GI50 (UACC-62): 1.94 µM (inactive)
GI50 (UO-31): 1.45 µM (inactive)

Cc1nc(C)c(C(=O)Nc2cccc3c2C(=O)NC3=O)cc1C(=O)Nc1cccc2c1C(=O)NC2=O
GI50 (786-0): > 100 µM (inactive)
GI50 (A498): > 100 µM (inactive)
GI50 (A549): > 100 µM (inactive)
GI50 (ACHN): > 100 µM (inactive)
GI50 (CAKI-1): > 100 µM (inactive)
GI50 (CCRF-CEM): > 100 µM (inactive)
GI50 (COLO 205): > 100 µM (inactive)
GI50 (DLD-1): > 100 µM (inactive)
GI50 (DMS-114): > 100 µM (inactive)
GI50 (DMS-273): > 100 µM (inactive)
GI50 (EKVX): > 100 µM (inactive)
GI50 (HCC 2998): > 100 µM (inactive)
GI50 (HCT-116): > 100 µM (inactive)
GI50 (HCT-15): > 100 µM
GI50 (HL-60): > 100 µM (inactive)
GI50 (HOP-18): > 100 µM (inactive)
GI50 (HOP-62): > 100 µM (inactive)
GI50 (HOP-92): > 100 µM (inactive)
GI50 (HT-29): > 100 µM (inactive)
GI50 (IGROV-1): > 100 µM (inactive)
GI50 (K562): > 100 µM (inactive)
GI50 (KM-20L2): > 100 µM (inactive)
GI50 (KM12): > 100 µM (inactive)
GI50 (LOX IMVI): > 100 µM (inactive)
GI50 (LXFL 529): > 100 µM (inactive)
GI50 (M14): > 100 µM (inactive)
GI50 (M19-MEL): > 100 µM (inactive)
GI50 (MOLT-4): > 100 µM (inactive)
GI50 (Malme-3M): > 100 µM (inactive)
GI50 (NCI-H226): > 100 µM (inactive)
GI50 (NCI-H23): > 100 µM (inactive)
GI50 (NCI-H460): > 100 µM (inactive)
GI50 (NCI-H522): > 100 µM (inactive)
GI50 (OVCAR-3): > 100 µM (inactive)
GI50 (OVCAR-4): > 100 µM (inactive)
GI50 (OVCAR-5): > 100 µM (inactive)
GI50 (OVCAR-8): > 100 µM (inactive)
GI50 (RPMI-8226): > 100 µM (inactive)
GI50 (RXF 393): > 100 µM (inactive)
GI50 (SF-268): > 100 µM (inactive)
GI50 (SF-295): > 100 µM (inactive)
GI50 (SF-539): > 100 µM (inactive)
GI50 (SK-MEL-28): > 100 µM (inactive)
GI50 (SK-MEL-2): > 100 µM (inactive)
GI50 (SK-MEL-5): > 100 µM (inactive)
GI50 (SK-OV-3): > 100 µM (inactive)
GI50 (SN12C): > 100 µM (inactive)
GI50 (SNB-19): > 100 µM (inactive)
GI50 (SNB-75): > 100 µM (inactive)
GI50 (SNB-78): > 100 µM (inactive)
GI50 (SR): > 100 µM (inactive)
GI50 (SW-620): > 100 µM (inactive)
GI50 (TK-10): > 100 µM (inactive)
GI50 (U-251): > 100 µM (inactive)
GI50 (UACC-257): > 100 µM (inactive)
GI50 (UACC-62): > 100 µM (inactive)
GI50 (UO-31): > 100 µM (inactive)
GI50 (XF498): > 100 µM (inactive)
